According to ChEMBL document CHEMBL3046391, “Acute toxicity and sublethal effects of methoxyfenozide and thiodicarb on survival, development and reproduction of Helicoverpa armigera (Lepidoptera: Noctuidae)” (2013):
Converted amounts (≈) assume the structure as drawn.

Experiments:
Assay type in all cases: functional
Helicoverpa armigera [1] = assay: Insecticidal activity against Helicoverpa armigera adults emerged from compound-treated third-instar larval stage assessed as decrease in longevity rate at LC30 concentration; set-up: scale not given: the % may be the effect or the level left
Helicoverpa armigera [2] = assay: Insecticidal activity against Helicoverpa armigera adults emerged from compound-treated third-instar larval stage assessed as decrease in fecundity rate at LC30 concentration; set-up: scale not given: the % may be the effect or the level left
Helicoverpa armigera [3] = assay: Insecticidal activity against Helicoverpa armigera pupae assessed as increase in pupal development time at LC30 concentration treated during third-instar larval stage for 24 hr
Helicoverpa armigera [4] = assay: Insecticidal activity against Helicoverpa armigera assessed as pupal weight at LC30 concentration treated during third-instar larval stage for 24 hr (reference value: 311 +/-9 mg)
Helicoverpa armigera [5] = assay: Insecticidal activity against third-instar larval stage of Helicoverpa armigera fed with artificial diet containing compound assessed as increase in larval development time at LC30 concentration incubated for 24 hr
Helicoverpa armigera [6] = assay: Insecticidal activity against Helicoverpa armigera fed with artificial diet containing compound assessed as mortality at LC30 concentration measured at 24 hr intervals beginning at 24 hr after initial drug exposure
Helicoverpa armigera [7] = assay: Insecticidal activity against third-instar larval stage of Helicoverpa armigera fed with artificial diet containing compound assessed as mortality at LC30 concentration measured at 24 hr intervals beginning at 24 hr after initial drug exposure
Helicoverpa armigera [8] = assay: Insecticidal activity against third-instar larval stage of Helicoverpa armigera fed with artificial diet containing compound assessed as mortality measured at 24 hr intervals beginning at 24 hr after initial drug exposure; conditions: for LC50: Helicoverpa armigera, Instar larval stage, 24 h

| SMILES | Activity (Helicoverpa armigera [1]) [%] | Activity (Helicoverpa armigera [2]) [%] | Time (Helicoverpa armigera [3]) [days] | Activity (Helicoverpa armigera [4]) [mg] | Time (Helicoverpa armigera [5]) [days] | mortality (Helicoverpa armigera [6]) [%] | mortality (Helicoverpa armigera [7]) [%] | LC30 (Helicoverpa armigera [8]) [ppm] | LC90 (Helicoverpa armigera [8]) [ppm] | LC50 (Helicoverpa armigera [8]) [µg/mL] |
| --- | --- | --- | --- | --- | --- | --- | --- | --- | --- | --- |
| CS/C(C)=N\OC(=O)N(C)SN(C)C(=O)O/N=C(\C)SC [THIODICARB] | 23 | 30 | 0.5 | 294 | 5.3 | 20 | 20 | 550 | 1987 | 798 (≈ 2250 µM) |
| COc1cccc(C(=O)NN(C(=O)c2cc(C)cc(C)c2)C(C)(C)C)c1C [METHOXYFENOZIDE] | 27.5 | 35 | 2.3 | 253 | 2.1 | 32 | 32 | 148 | 560 | 218 (≈ 592 µM) |
